Laboratory results taken from ChEMBL document CHEMBL1122816, “Synthesis and activity of 5-(aminomethylene)-1,3-cyclohexanediones: enolic analogues of gamma-aminobutyric acid” (J Med Chem, 1985).

Key:
Rattus norvegicus = species: Rattus norvegicus; experiment: The inhibitory concentration of compound against sodium dependent [3H]GABA synaptosomal uptake in rats; assay type: functional
GABA B receptor = GABA B receptor (Rattus norvegicus, UniProt O88871+Q9Z0U4); experiment: Displacement of [3H]baclofen from Gamma-aminobutyric acid type B receptor in rat brain membranes; assay type: cell membranes
[1] = target: GABA-A receptor; anion channel; experiment: Displacement of [3H]GABA from Gamma-aminobutyric acid A (GABA-A) receptor in rat brain membranes; assay type: cell membranes

Chain of GABA B receptor (Q9Z0U4 whole entry): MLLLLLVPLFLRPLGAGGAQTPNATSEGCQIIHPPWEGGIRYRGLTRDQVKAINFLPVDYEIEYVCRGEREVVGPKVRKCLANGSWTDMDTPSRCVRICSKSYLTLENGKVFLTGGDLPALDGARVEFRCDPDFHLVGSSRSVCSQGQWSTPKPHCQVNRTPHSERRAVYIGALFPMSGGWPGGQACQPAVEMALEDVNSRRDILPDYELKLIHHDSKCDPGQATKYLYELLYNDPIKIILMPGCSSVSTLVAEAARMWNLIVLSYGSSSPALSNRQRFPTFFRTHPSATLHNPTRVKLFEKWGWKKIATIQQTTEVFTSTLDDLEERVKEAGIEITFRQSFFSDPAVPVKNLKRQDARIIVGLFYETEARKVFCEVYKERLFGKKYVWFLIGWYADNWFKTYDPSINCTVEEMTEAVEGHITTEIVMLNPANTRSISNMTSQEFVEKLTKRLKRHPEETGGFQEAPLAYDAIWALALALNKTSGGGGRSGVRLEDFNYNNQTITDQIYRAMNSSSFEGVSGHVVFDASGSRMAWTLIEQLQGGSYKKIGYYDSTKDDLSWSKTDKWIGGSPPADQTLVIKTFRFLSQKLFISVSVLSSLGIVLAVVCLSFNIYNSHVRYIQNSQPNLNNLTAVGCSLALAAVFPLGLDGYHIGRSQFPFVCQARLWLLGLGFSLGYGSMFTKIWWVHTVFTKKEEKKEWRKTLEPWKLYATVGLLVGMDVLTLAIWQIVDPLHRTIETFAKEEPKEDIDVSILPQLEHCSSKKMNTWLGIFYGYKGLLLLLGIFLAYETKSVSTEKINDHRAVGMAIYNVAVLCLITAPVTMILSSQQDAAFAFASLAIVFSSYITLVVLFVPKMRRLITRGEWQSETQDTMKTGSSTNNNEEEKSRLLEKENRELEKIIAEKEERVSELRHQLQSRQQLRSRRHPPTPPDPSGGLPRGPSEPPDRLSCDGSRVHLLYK
Chain of GABA B receptor (O88871 whole entry): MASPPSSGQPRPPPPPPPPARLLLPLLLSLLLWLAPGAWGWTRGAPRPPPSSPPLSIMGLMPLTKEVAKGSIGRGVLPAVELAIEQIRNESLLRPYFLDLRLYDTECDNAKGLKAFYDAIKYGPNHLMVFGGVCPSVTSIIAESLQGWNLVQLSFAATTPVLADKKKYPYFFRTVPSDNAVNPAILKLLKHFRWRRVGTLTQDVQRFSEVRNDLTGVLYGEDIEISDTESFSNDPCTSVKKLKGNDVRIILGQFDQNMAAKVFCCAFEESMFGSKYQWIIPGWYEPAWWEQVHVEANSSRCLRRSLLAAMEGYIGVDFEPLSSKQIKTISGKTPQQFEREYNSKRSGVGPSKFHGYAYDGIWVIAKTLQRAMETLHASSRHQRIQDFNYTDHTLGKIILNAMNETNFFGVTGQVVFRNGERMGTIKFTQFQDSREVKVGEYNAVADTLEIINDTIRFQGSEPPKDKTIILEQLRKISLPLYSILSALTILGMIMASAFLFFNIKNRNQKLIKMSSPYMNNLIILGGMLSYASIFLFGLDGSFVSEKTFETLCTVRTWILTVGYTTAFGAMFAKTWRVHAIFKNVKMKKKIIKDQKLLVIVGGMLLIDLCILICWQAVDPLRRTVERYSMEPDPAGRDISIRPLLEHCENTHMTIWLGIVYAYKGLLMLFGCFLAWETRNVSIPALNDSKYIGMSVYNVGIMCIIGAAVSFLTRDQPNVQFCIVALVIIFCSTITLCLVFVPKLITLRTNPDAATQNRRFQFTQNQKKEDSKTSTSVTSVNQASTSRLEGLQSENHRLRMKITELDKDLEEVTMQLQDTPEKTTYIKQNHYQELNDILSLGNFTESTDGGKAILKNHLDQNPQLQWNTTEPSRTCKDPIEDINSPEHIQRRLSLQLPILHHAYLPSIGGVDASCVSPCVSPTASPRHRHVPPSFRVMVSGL

Row | Structure (SMILES) | IC50 (Rattus norvegicus) | IC50 (GABA B receptor) | IC50 [1]
1 | NCC1CC(=O)C=C(O)C1 (stereo not drawn) | > 100 µM | > 100 µM | 65 µM
2 | NCC(CC(=O)O)c1ccc(Cl)cc1 (stereo not drawn) [BACLOFEN] | 1.8 µM | – | 0.03 µM
3 | O=C(O)C1CCCNC1 (stereo not drawn) [NIPECOTIC ACID] | 5.6 µM | > 100 µM | > 100 µM
